Read-outs that look alike come from different tables or passages of the source.
Key:
amphetamine = assay: Amphetamine antagonism; type: in vivo, Rats, male; conditions: for ED50: Rattus norvegicus, ip, 2 h, rats, i.p., amphetamine sulphate 13.6 mg/kg i.v. two hours later, read-out: Amphetamine antag. (ED50)
Protocol: Amphetamine antagonism (ED50 mg/kg i.p.)
Perspex observation cages without bottom and lid, consisting of 5 sections each measuring 12×25×30 cm.
The test substance is given i.p. in a reasonable dose based on the determined LD50. Two hours later an intravenous injection of amphetamine sulphate 13.6 mg/kg (~10 mg/kg amphetamine base) is given, after which the rats are placed individually in the cages. The cages are placed on white corrugated paper. Five rats are used for each dose level. Observations are made after 55 minutes and 65 minutes--observation time: 1 minute. The animals are observed for stereotypy (movements of the head, compulsive gnawing). […] If the compound has full antagonistic effect another group of rats is used at a lower dose. […] The result is stated as fractions: 0/5, 1/5, 2/5, 3/5, 4/5 and 5/5, where 0, 1, 2, 3, 4 and 5 indicate the number of rats which have not shown stereotypy at the dose in question. The results are calculated as ED50 in mg/kg.

[1] = Catalepsy wire mesh, rat, max.; type: in vivo, male; conditions: rats; for Ratio Catalep./Amphetam. antag.: catalepsy ED50 (s.c.) / amphetamine antagonism ED50 (i.p.); for ED50: rat, in vivo, sc, wire mesh, maximum effect within first 6 hours
Protocol: Catalepsy wire mesh, rat, max. (ED50 mg/kg s.c.)
A vertical wire netting (50 cm×49 cm). The meshes (openings) of the netting are square (1 cm×1 cm). The wire diameter is 2 mm.
The animals are labeled and used in groups of five. The test substance is injected subcutaneously (s.c.) (5 ml/kg) at 4 dose levels selected from the fixed dose scale.
The animals are placed in the middle of the vertical wire netting 60, 120, 180, 240, 300 and 360 minutes after injection of the test compound. The animals are considered cetaleptic when they remain immobile during a period of 15 seconds. This cataleptic reaction is designated +. If the rats are "atonic" and passively slides down the wire mesh they are considered not cataleptic. If the animals climb up and down the wire mesh they are nor cataleptic. In both situations the designation - is used.

methylphenidate = assay: Methylphenidate antagonism; type: in vivo, male; conditions: Mus musculus, ip, mice, i.p.
Protocol: Methylphenidate antagonism (ED50 mg/kg i.p.)
Perspex observation cages without bottom and lid, consisting of 5 sections each measuring 12×25×30 cm. White corrugated paper. Mice, male, 18-25 g.
3×2 mice are used for each dose level. Two or 24 hours after injection of test substance, methylphenidate, 60 mg/kg, is injected s.c.
After administration of methylphenidate the mice are placed in the observation cages, 2 in each cage, where they remain for exactly 1 hour. The cages are placed on corrugated paper, the corrugations facing upwards. It is examined whether the mice have been biting the corrugated paper or not. […] If one or more of the control pairs have not been biting, the test has to be repeated on a new set of mice.
The result is stated in fractions: 0/3, 1/3, 2/3 and 3/3 where 0, 1, 2 and 3 are the number of pairs which have not been biting on receipt of the dose in question.

physostigmine = assay: Physostigmine antagonism; type: in vivo, male; conditions: Mus musculus, ip, 0.5 h; mice, i.p., physostigmine 2 mg/kg i.p. thirty minutes after test substance; survivors after 60 minutes; read-out: Physostigmine antag. (ED50)
Protocol: Physostigmine antagonism (ED50 mg/kg i.p.)
Scopolamine bromide 0.04 mg/ml or 0.1 mg/ml.
Physostigmine salicylate 0.2 mg/ml.
Five mice are used for each dose level. One group, serving as positive control, is injected with scopolamine 0.4 mg/kg i.p. Thirty minutes after i.p. administration of test substance (or scopolamine), physostigmine 2 mg/kg, is injected i.p. This dose of physostigmine induces tremor with salivation, clonic convulsions, coma and death. After 60 minutes the number of survivors are counted.
The results are recorded in fractions: 0/5, 1/5, 2/5, 3/5, 4/5 and 5/5 where 0, 1, 2, 3, 4 and 5 inducate the number of animals in which the test compound has prevented the occurrence of death.

[2] = Determination of LD50 (acute toxicity, i.p.); type: in vivo, Mice, male; conditions: for LD50 at 24 h: mouse, in vivo, ip, mice, i.p., deaths after 24 hours; for acute toxicity, in words: compared with Lu 14-089 or related thioxanthene derivatives
Protocol: Determination of LD50 (mg/kg i.p.)
Mice, male, weighing from 18-25 g, fasted from 4 p.m. the day before test day.
Four treated groups and one control group, each of 4 mice, are used.
The test substance is suspended in methyl cellulose 0.5% and injected intraperitoneally. The animals are placed in Macrolon cages type II. […] Furthermore the results are recorded according to the punching instructions as fractions: 0/4, 1/4, 2/4, 3/4 and 4/4 where 0, 1, 2, 3 and 4 indicate the number of deaths after the dose in question.

apomorphine = assay: Apomorphine vomit; type: in vivo, Adult Beagle dogs; conditions: Canis lupus familiaris, sc, 4 h; Beagle dogs, s.c., four hours before apomorphine 25 μg/kg i.v.; calculated ED50 approximate; read-out: Apomorph. Vomit (ED50)
Protocol: Adult Beagle dogs of either sex, housed individually in kennels or in cages.
2-4 dogs are used per dose level.
The test compound is injected subcutanelusly in the back of the neck four hours before apomorphine, which is given intravenously in a dose of 25 μg/kg (volume 0.1 ml/kg).
The results are given as fractions, i.e. 0/2, 1/2 or 2/2, stating the number of dogs protected against vomiting over to the number of dogs. On account of the small number of animals the calculated ED50 should be considered approximate.

Muscarinic = Muscarinic affinity binding (3H-PrBCM, whole brain P2 fraction); parameters: species or system Rats; conditions: displacement of specific 3H-PrBCM binding by 50%; rat brain, pH 7.4, 30° C.; read-out: Muscarine affinity (IC50)
Protocol: Muscarinic affinity binding
Sodium thiosulphate 10 mM (2.48 g/1000 ml) ^3 H-PrBCM (N-2'-chloroethyl-N-[2", 3"-^3 H2 ] propyl-2-aminoethylbenzilate,spec. act. ~28 Ci/mM).
A rat is killed by a blow on the head and exsanguinated. The whole brain is removed and homogenized in 10 volumes of ice cold 0.32 M sucrose with a hand homogenizer. The homogenate is centrifuged at 600 g for 10 minutes (4° C.) and the pellet discarded. The supernatant is then centrifuged at 25000 g for 55 minutes (4° C.). The pellet fraction (P2) is resuspended in the same volume of 0.32 M sucrose as previously used and stored on ice.
The aziridinium ion of ^3 H-propylbenzilyllcholine mustard (^3 H-PrBCM) is prepared by cyclization at a concentration of 130 nM in 15 mM Na-phosphate buffer (pH 7.4) for 50 minutes at 20° C. The reaction is terminated by addition of 100 volumes of ice cold buffer.
The incubation is continued for 15 minutes and stopped by addition of 20 ml 100 mM phosphate buffer containing 10 mM sodium thiosulphate. The samples are filtered through Whatman GF/C glass fiber filters and washed with 30 ml ice cold 100 mM phosphate buffer. The filters with synaptosomes are transferred to scintillation vials and the radio-activity measured by liquid scintillation counting after addition of 10 ml Instal-Gel (Packard Inst.). All experiments are performed in triplicate.
Specific ^3 H-PrBCM binding is defined as the total binding minus the binding in the presence of 20 μM atropine.

[3] = Administration to human beings; conditions: in vivo
From the text: Lu 14-089 as well as the non-toxic acid addition salts thereof may be administered to animals such as dogs, cats, horses sheeps or the like, including human beings, both orally and parenterally, and may be used for example in the form of tablets capsules, powders, syrups, suppositories, or in the form of the usual sterile solutions for injection.

[4] = Neuroleptic and pharmacological profile evaluated by standard test methods (overall statements); type: in vivo
From the text: The pharmacological testing of 2-methylthio-6-fluoro-9-(1-methyl-4-piperidylidene)-thioxanthene, in the following called Lu 14-089 for short, and its non-toxic acid addition salts consisted of standard and reliable tests.

[5] = methylphenidate 60 mg/kg s.c. 2 h after test substance, read-out: Methylphenidate antag. 2h (ED50)
[6] = methylphenidate 60 mg/kg s.c. 24 h after test substance, read-out: Methylphenidate antag. 24h (ED50)

| Compound | ED50 (amphetamine) [mg/kg] | Ratio Catalep./Amphetam. antag. [1] | ED50 [1] [mg/kg] | ED50 (methylphenidate; [5]) [mg/kg] | ED50 (physostigmine) [mg/kg] | LD50 at 24 h [2] [mg/kg] | ED50 (apomorphine) [mg/kg] | IC50 (Muscarinic) [µM] | ED50 (methylphenidate; [6]) [mg/kg] | neuroleptic activity as expressed by the amphetamine antagonism, in words (amphetamine; compared with Lu 14-089) | acute toxicity, in words [2] | Results upon administration to human beings [3] | neuroleptic effects, in words ([4]; compound and its non-toxic acid addition salts) | anticholinergic effects, in words ([4]; in vivo) | extrapyramidal side effects, in words ([4]; pharmacological profile, standard test methods) |
| --- | --- | --- | --- | --- | --- | --- | --- | --- | --- | --- | --- | --- | --- | --- | --- |
| CN1CCC(=C2c3ccc(F)cc3Sc3ccc(Cl)cc32)CC1 [Lu 12-304, 2-Chloro-6-fluoro-9-(1-methyl-4-piperidylidene)-thioxanthene] | 5.5 | 0.62 | 3.4 | 4.6 | 8.9 | 187 | – | – | – | – | – | – | – | – | – |
| CN1CCC(=C2c3ccc(F)cc3Sc3ccc(C(F)(F)F)cc32)CC1 [Lu 12-312, 2-Trifluoromethyl-6-fluoro-9-(1-methyl-4-piperidylidene)-thioxanthene] | 0.56 | 0.12 | 0.067 | 0.07 | 7.7 | 188 | 0.04 | 0.018 | 2.1 | – | – | – | – | – | – |
| CN1CCC(=C2c3ccccc3Sc3ccc(C(F)(F)F)cc32)CC1 [Lu 13-003, 2-Trifluoromethyl-9-(1-methyl-4-piperidylidene)-thioxanthene] | 0.37 | 3.5 | 1.3 | 0.15 | 4.6 | 187 | – | 0.008 | – | – | – | – | – | – | – |
| CN1CCC(=C2c3ccccc3Sc3ccc(Cl)cc32)CC1 [Lu 13-016, 2-Chloro-9-(1-methyl-4-piperidylidene)-thioxanthene] | 3.9 | 6.5 | 25 | 1 | 4.4 | 226 | – | 0.014 | > 20 | much lower neuroleptic activity | higher acute toxicity | – | – | – | – |
| CSc1ccc2c(c1)C(=C1CCN(C)CC1)c1ccc(F)cc1S2 [Lu 14-089, 2-methylthio-6-fluoro-9-(1-methyl-4-piperidylidene)-thioxanthene] | 0.74 | 8.5 | 6.3 | 0.1 | 7.2 | > 320 | 0.014 | 0.014 | 14 | – | low acute toxicity compared with related thioxanthene derivatives | very gratifying | strong and relatively longlasting neuroleptic effects | strong anticholinergic effects | low extrapyrimidal side effects |
| CSc1ccc2c(c1)C(=C1CCN(C)CC1)c1ccccc1S2 [Lu 14-145, 2-Methylthio-9-(1-methyl-4-piperidylidene)-thioxanthene] | > 20 | – | > 20 | 1.4 | 4.9 | 188 | – | 0.013 | 14 | – | – | – | – | – | – |
| CN(C)CCCN1c2ccccc2Sc2ccc(Cl)cc21 [chlorpromazine] | 7.1 | – | 5.6 | 4 | > 40 | 226 | 0.36 | – | 20 | – | – | – | – | – | – |
| CN(C)CC/C=C1/c2ccccc2Sc2ccc(Cl)cc21 [chlorprothixene] | 6.1 | – | 4 | 0.71 | 86 | 226 | 0.9 | – | > 20 | – | – | – | – | – | – |
| OCCN1CCN(CCC=C2c3ccccc3Sc3ccc(Cl)cc32)CC1 [clopenthixol] | 0.77 | – | 0.95 | 1.2 | > 20 | 226 | 0.04 | – | – | – | – | – | – | – | – |
| CN1CCN(C2=Nc3cc(Cl)ccc3Nc3ccccc32)CC1 [clozapine] | > 40 | – | 85 | > 160 | 24 | > 320 | ~4 | – | – | – | – | – | – | – | – |
| OCCN1CCN(CCC=C2c3ccccc3Sc3ccc(C(F)(F)F)cc32)CC1 [flupentixol] | 0.69 | 0.36 | 0.25 | 0.2 | > 40 | 246 | 0.02 | 4 | > 20 | – | – | – | – | – | – |
| OCCN1CCN(CCCN2c3ccccc3Sc3ccc(C(F)(F)F)cc32)CC1 [fluphenazine] | 0.08 | – | 0.099 | 0.04 | > 20 | 259 | 0.007 | – | 3.6 | – | – | – | – | – | – |
| O=C(CCCN1CCC(O)(c2ccc(Cl)cc2)CC1)c1ccc(F)cc1 [haloperidol] | 0.14 | – | 0.21 | 0.06 | > 20 | 226 | 0.01 | – | – | – | – | – | – | – | – |

Source: patent publication US4235916A, “2-Methylthio-6-fluoro-9-(1-methyl-4-piperidylidene)-thioxanthene and salts thereof, neuroleptic compositions and method of use” (Kefalas A/S, priority 1977, dated 1980)
